Measured values published in US20150175712A1, “ANTAGONIST TO AN ENZYME AND/OR A METABOLITE OF THE KYNURENINE PATHWAY” (ImmuSmol SAS, priority 2012, published 2015).
Entries after “also recorded” stand apart in the source; their conditions may differ.

Key:
tumor = settings: Muller et al 2005; cited from earlier work
[1] = system: CD4 positive helper T cells; assay: Proliferation of helper T cells activated with CD3/CD28 antibodies (CFSE); assay type: cell-based; settings: 3HAA 100 μM, 96 hours
Procedure: FIG. 21: Suppression of anti-proliferative properties of 3HAA on helper T cells by a 3HAA monoclonal antibody (1B10). CD4 positive T cells were activated by anti CD3/CD28 antibodies cocktail and incubated for 96 hours with either vehicle, 3HAA at 100 μM or 3HAA (100 μM)+IgG anti 3HAA.
We evaluated the ability of the selected anti 3HAA antibody to block the suppressive effect of 3HAA on helper T cells activated with CD3/CD28 cocktail antibodies. Helper T cells were incubated with or without 3HAA and stained with CFSE (carboxyfluorescein succinimidyl ester). […] The selected anti 3HAA antibody is therefore able to inhibit, in vitro, the suppressive effect of 3HAA, e.g. on helper T cells.

IDO = IDO (Homo sapiens, UniProt P14902); settings: Pilotte et al 2012; cited from earlier work
Sequence of IDO (P14902 whole entry, species assumed): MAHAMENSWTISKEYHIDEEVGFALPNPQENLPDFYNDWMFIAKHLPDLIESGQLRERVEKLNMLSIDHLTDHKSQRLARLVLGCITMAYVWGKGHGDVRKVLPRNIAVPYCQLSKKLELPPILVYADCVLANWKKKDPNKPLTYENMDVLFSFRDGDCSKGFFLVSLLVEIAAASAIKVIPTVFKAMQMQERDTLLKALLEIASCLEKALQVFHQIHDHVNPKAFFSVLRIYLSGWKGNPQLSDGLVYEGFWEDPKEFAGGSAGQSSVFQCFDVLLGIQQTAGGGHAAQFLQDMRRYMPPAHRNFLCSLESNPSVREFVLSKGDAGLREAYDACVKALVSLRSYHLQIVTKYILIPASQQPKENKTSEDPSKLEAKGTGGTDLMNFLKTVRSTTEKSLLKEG

[2] = Pilotte et al 2012; cited from earlier work
mastocytoma = settings: Pilotte et al 2012; cited from earlier work

## Cn1cc(C[C@H](N)C(=O)O)c2ccccc21 [Clone 1MT, 1-Methyl Tryptophan]
tumor
  anti-tumor benefits when administered alone: weak

## Nc1c(O)cccc1C(=O)O [Clone 3HAA, 3-Hydroxy Anthranilic Acid]
[1]
  Effect of 3HAA on proliferation of activated helper T cells: blocked cell proliferation; also recorded: anergy of T cells was induced

## Fc1ccc2c(/C=C/c3nnn[nH]3)c[nH]c2c1 [LM-10, trans-6-Fluoro-3-[2-(1H-tetrazol-5-yl)vinyl]-1H-indole]
IDO
  IDO inhibition: does not inhibit
[2]
  solubility compared to 1MT: higher
mastocytoma
  benefits in experimental model of mastocytoma: benefits
